{"source": "paper PMC6934184", "about": "“Selective DNA-PKcs inhibition extends the therapeutic index of localized radiotherapy and chemotherapy” (The Journal of Clinical Investigation, 2019)", "target": "T1, KIT A829P (Homo sapiens, UniProt P10721, A829P)", "T1 construct": "purchased Thermo Fisher Scientific (Life Technologies) SelectScreen", "T1 sequence (P10721 26-976 A829P)": "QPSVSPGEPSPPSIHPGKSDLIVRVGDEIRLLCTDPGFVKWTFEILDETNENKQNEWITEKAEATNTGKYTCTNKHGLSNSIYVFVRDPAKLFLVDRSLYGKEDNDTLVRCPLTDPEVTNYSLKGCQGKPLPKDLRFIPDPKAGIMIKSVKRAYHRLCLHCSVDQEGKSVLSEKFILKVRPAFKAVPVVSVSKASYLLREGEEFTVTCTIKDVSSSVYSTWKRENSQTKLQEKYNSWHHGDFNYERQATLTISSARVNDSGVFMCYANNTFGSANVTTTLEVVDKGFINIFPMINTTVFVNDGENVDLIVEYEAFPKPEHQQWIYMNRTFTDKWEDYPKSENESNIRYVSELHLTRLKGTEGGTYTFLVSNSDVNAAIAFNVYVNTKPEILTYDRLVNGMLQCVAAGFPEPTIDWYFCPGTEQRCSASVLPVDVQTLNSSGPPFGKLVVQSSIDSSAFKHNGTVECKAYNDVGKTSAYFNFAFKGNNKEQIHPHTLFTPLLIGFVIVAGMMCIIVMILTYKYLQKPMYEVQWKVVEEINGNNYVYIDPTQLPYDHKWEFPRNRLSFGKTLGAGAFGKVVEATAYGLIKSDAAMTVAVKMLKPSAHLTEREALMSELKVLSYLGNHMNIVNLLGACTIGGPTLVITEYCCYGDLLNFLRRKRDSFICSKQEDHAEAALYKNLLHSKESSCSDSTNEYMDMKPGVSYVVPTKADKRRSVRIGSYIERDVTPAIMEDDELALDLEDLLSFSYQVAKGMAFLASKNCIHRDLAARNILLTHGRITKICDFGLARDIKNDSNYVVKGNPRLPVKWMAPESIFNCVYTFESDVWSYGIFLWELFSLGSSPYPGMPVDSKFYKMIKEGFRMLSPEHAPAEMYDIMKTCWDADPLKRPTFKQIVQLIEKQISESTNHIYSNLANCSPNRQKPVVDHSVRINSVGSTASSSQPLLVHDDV", "assay": "SelectScreen LanthaScreen", "assay_type": "binding", "conditions": "read-out: % displacement", "method_in_brief": "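Percent values come from Thermo SelectScreen profiling of NU5455, combining activity and binding assays. CSF1R was run in Z'LYTE format at Km app ATP, and CAMK1 in Adapta format with ATP listed at 10.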", "data": [{"smiles": "CN(C(=O)CN1CCOCC1)c1ccc2sc3c(-c4cccc5c(=O)cc(N6CC7CCC(C6)O7)oc45)cccc3c2c1", "note": "[NU5455]", "values": [{"measurement": "inhibition at 1 µM", "result": 0.7, "unit": "%"}]}]}
